Each structure is given as a SMILES string.

One experiment has as its system SETVI Setaria viridis. The experiment in a line: Post-emergence herbicidal action against harmful plants. It is filed as in vivo. To be noted: dosage 80 g/ha, assessed visually after about 3 weeks, 100% = plants have died. On the procedure:
(§1) SETVI Setaria viridis Seeds of monocotyledonous and dicotyledonous weed and crop plants are laid out in sandy loam in wood-fiber pots, covered with soil and cultivated in a greenhouse under good growth conditions. 2 to 3 weeks after sowing, the test plants are treated at the one-leaf stage. The compounds of the invention, formulated in the form of wettable powders (WP) or as emulsion concentrates (EC), are then sprayed onto the green parts of the plants in the form of an aqueous suspension or emulsion at a water application rate equating to 600 to 800 l/ha, with addition of 0.2% wetting agent. After the test plants have been left to stand in the greenhouse under optimal growth conditions for about 3 weeks, the action of the preparations is assessed visually in comparison to untreated controls (herbicidal action in percent (%): 100% activity=the plants have died, 0% activity=like control plants).
Regarding `Cc1nonc1NC(=O)c1ccc(C#N)c(S(C)(=O)=O)c1C`, the “Activity against SETVI” value amounted to 0%.

`Cc1ccc(C(=O)Nc2nonc2C)c(C)c1S(C)(=O)=O` [drawing 24]: the “Activity against SETVI” value turned out to be 40%.

On to `CSc1c(Cl)ccc(C(=O)Nc2nonc2C)c1C`, for which the “Activity against SETVI” value worked out at 0%.

`Cc1ccc(C(=O)Nc2nonc2C)c(C)c1S(C)(=O)=O` [drawing 27]: the “Activity against SETVI” value is 80%.

On to `Cc1nonc1NC(=O)c1ccc(C(F)(F)F)c(S(C)(=O)=O)c1C`, for which the “Activity against SETVI” value is listed as 40%.

Take `CSc1c(C)ccc(C(=O)Nc2nonc2C)c1C`: the “Activity against SETVI” value stood at 0%.

The test system of another experiment is AMARE Amaranthus retroflexus. The experiment is described as above. It is filed as in vivo. To be noted: dosage 80 g/ha, assessed visually after about 3 weeks, 100% = plants have died. On the procedure: as §1, with “AMARE Amaranthus retroflexus PHBPU Pharbitis purpureum” for “SETVI Setaria viridis”
`Cc1c(C(=O)Nc2ncnn2C)ccc(Cl)c1S(C)(=O)=O`: the “Activity against AMARE” value came to 60%.

Consider `Cc1ccc(C(=O)Nc2ncnn2C)c(Br)c1[S+](C)[O-]` (stereo not shown), for which the “Activity against AMARE” value was found to be 70%.

As to `Cc1ccc(C(=O)Nc2ncnn2C)c(C)c1[S+](C)[O-]` (stereo not shown), the “Activity against AMARE” value was determined as 90%.

Regarding `CSc1c(C)ccc(C(=O)Nc2ncnn2C)c1C`, the “Activity against AMARE” value was 90%.

In the case of `Cc1ccc(C(=O)Nc2ncnn2C)c(C)c1S(C)(=O)=O`, the “Activity against AMARE” value amounted to 90%.

In the case of `CSc1c(C)ccc(C(=O)Nc2ncnn2C)c1Br`, the “Activity against AMARE” value is reported as 70%.

On to `Cc1ccc(C(=O)Nc2ncnn2C)c(Br)c1S(C)(=O)=O`, for which the “Activity against AMARE” value is reported as 60%.

In the case of `Cc1ccc(C(=O)Nc2ncnn2C)c(C)c1`, the “Activity against AMARE” value was 0%.

A further experiment deals with PHBPU Pharbitis purpureum. Described as above. The class given is in vivo. To be noted: dosage 20 g/ha, assessed visually after about 3 weeks, 100% = plants have died. As to the method: as §1, with “AMARE Amaranthus retroflexus PHBPU Pharbitis purpureum” for “SETVI Setaria viridis”
As for `COSc1c(C)ccc(C(=O)Nc2nnc(C)o2)c1C`, the “Activity against PHBPU” value is 60%.

`COSc1c(C)ccc(C(=O)Nc2nnc(C)o2)c1Br`: the “Activity against PHBPU” value turned out to be 40%.

The same experiment, now with this note: dosage 20 g/ha, visual scoring after about 3 weeks vs untreated controls (100% = plants have died, 0% = like control plants).
As for `CSc1c(C)ccc(C(=O)Nc2nnc(C)o2)c1C`, the “Activity against PHBPU” value was 60%.

On to `CSc1c(C)ccc(C(=O)Nc2nnc(C)o2)c1Br`, for which the “Activity against PHBPU” value was 0%.

With `CSc1c(Br)ccc(C(=O)Nc2nnc(C)o2)c1C`, the “Activity against PHBPU” value is on record as 10%.

These data come from patent publication US9988359B2, “Herbicidally active benzoic acid amides” (BAYER CROPSCIENCE AKTIENGESELLSCHAFT, priority 2014, dated 2018).
